In PMC9683399 (Journal of medicinal chemistry, 2022):

Target: BRD4 D2 (Homo sapiens, UniProt O60885)

`Cc1sc2c(c1C)C(c1ccc(Cl)cc1)=N[C@@H](CC(=O)OC(C)(C)C)c1nnc(C)n1-2` [(+)-JQ1] was tested. Which “binding to BRD4 D2 by ITC” value did it give?
Its value is “potent binding”.
